This is an account of results in patent US9365583B2, “Substituted pyrazoles and uses thereof” (Genentech, Inc., priority 2013, dated 2016).

The assay concerns the target T1, N-terminally GST-tagged DLK (catalytic domain amino acid 1-520) (Homo sapiens, UniProt Q12852).
T1 construct: N-terminally GST-tagged DLK (catalytic domain amino acid 1-520); purchased Carna Bioscience
T1 sequence (Q12852 1-520): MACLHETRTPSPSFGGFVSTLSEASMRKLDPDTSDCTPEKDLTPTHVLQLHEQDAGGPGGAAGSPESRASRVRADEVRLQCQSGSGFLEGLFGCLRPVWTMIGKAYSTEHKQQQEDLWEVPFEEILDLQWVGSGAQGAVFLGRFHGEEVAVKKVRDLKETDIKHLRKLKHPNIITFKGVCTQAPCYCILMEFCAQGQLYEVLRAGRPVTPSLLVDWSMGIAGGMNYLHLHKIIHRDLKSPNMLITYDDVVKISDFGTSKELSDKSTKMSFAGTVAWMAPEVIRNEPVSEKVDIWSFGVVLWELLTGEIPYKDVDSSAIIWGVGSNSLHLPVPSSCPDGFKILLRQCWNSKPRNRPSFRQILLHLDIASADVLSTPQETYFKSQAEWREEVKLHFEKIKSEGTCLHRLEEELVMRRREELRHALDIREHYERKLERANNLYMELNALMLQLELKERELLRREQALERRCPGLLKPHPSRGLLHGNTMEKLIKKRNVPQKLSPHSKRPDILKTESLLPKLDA
Briefly: DLK TR-FRET inhibition assay. The assay is classed as biochemical. Particulars: 5 nM GST-DLK, 40 nM HIS-MKK4 K131M substrate, 30 μM ATP, 60 minutes at ambient temperature. An outline of the steps:
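5 nM GST-DLK (aa 1-520), 40 nM HIS-MKK4 K131M and 30 μM ATP reacted 60 min at ambient temperature in HEPES pH 7.5 buffer with 10 mM MgCl2, compound 1:3 serially diluted from 20 uM. TR-FRET detection of phospho-MKK4 used Eu-cryptate anti-phospho-MKK4 plus D2 anti-HIS, read after 3 h (665/615 nm).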
For orientation: Time-resolved FRET reads energy transfer from a long-lived donor to a nearby acceptor.
`CC(C)n1nc(-c2cnc(N)c(C(F)(F)F)c2)cc1[C@H]1[C@@H]2C[C@H](N3CCC3)C[C@@H]21` [compound 30, 5-(5-((1R,3r,5S,6r)-3-(azetidin-1-yl)bicyclo[3.1.0]hexan-6-yl)-1-isopropyl-1H-pyrazol-3-yl)-3-(trifluoromethyl)pyridin-2-amine] returned a Ki of 3.59 nM.
For the compound `CC(C)n1nc(-c2cnc(N)c(OC(F)F)c2)cc1[C@H]1[C@@H]2C[C@@H](N3CCN(CC(F)F)CC3)C[C@@H]21` [compound 257, 5-(5-((1R,3s,5S,6r)-3-(4-(2,2-difluoro-ethyl)piperazin-1-yl)bicyclo [3.1.0]hexan-6-yl)-1-isopropyl-1H-pyrazol-3-yl)-3-(difluoromethoxy)pyridin-2-amine], the Ki came out at 0.7 nM.
Compound `CCN1CCN([C@H]2C[C@@H]3[C@H](C2)[C@H]3c2cc(-c3cnc(N)c(OC(F)(F)F)c3)nn2C(C)C)CC1` [compound 14, 5-(5-((1R,3r,5S,6r)-3-(4-ethylpiperazin-1-yl)bicyclo[3.1.0]hexan-6-yl)-1-isopropyl-1H-pyrazol-3-yl)-3-(trifluoromethoxy) pyridin-2-amine] showed an inhibition constant (Ki) of 1.72 nM.
In the case of `CC(C)n1nc(-c2cnc(N)c(C(F)(F)F)c2)cc1[C@H]1[C@@H]2C[C@H](N3CC4(COC4)C3)C[C@@H]21` [compound 65, 5-(5-((1R,3r,5S,6r)-3-(2-oxa-6-azaspiro[3.3]heptan-6-yl)bicyclo [3.1.0]hexan-6-yl)-1-isopropyl-1H-pyrazol-3-yl)-3-(trifluoro-methyl)pyridin-2-amine], affinity was put at a Ki of 1.13 nM.
For `CO[C@H]1CCN([C@@H]2C[C@@H]3[C@H](C2)[C@H]3c2cc(-c3cnc(N)c(C(F)(F)F)c3)nn2C(C)C)C1` [compound 90, (1-isopropyl-5-((1R,3s,5S,6S)-3-((S)-3-methoxypyrrolidin-1-yl)bicyclo[3.1.0]hexan-6-yl)-1H-pyrazol-3-yl)-3-(trifluoromethyl) pyridin-2-amine] the value was 5.95 nM.
The same measure for “5-(1-isopropyl-5-((1R,3s,5S,6R)- 3-((R)-2-methylmorpholino) bicyclo[3.1.0]hexan-6-yl)-1H- pyrazol-3-yl)-3-(trifluoromethyl) pyridin-2-amine [compound 1]”: 2.28 nM; for `Nc1ncc(-c2cc([C@H]3[C@@H]4CC(O)C[C@@H]43)n(CC(F)F)n2)cc1OC(F)(F)F` (stereo partly drawn) [compound 94, (1R,5S,6r)-6-(3-(6-amino-5-(trifluoromethoxy)pyridin-3-yl)-1-(2,2-difluoroethyl)-1H-pyrazol-5-yl)bicyclo[3.1.0]hexan-3-ol]: 1.45 nM.
In the case of `CC(C)n1nc(-c2cnc(N)c(OC(F)F)c2)cc1[C@H]1[C@@H]2C[C@H](F)C[C@@H]21` [compound 213, 3-(difluoromethoxy)-5-(5-((1R,3r,5S,6r)-3-fluorobicyclo[3.1.0]hexan-6-yl)-1-isopropyl-1H-pyrazol-3-yl)pyridin-2-amine], the Ki was found to be 5.1 nM.
On to `CC(C)n1nc(-c2cnc(N)c(OC(F)F)c2)cc1[C@H]1[C@@H]2C[C@@H](N3CC(F)(F)C3)C[C@@H]21` [compound 42, 5-(5-((1R,3s,5S,6r)-3-(3,3-difluoroazetidin-1-yl)bicyclo[3.1.0]hexan-6-yl)-1-isopropyl-1H-pyrazol-3-yl)-3-(difluoromethoxy) pyridin-2-amine], for which the Ki worked out at 4.53 nM.
`Nc1ncc(-c2cc([C@H]3[C@@H]4C[C@H](N5CCOCC5)C[C@@H]43)n(CC3CCC3)n2)cc1OC(F)F` [compound 127, 5-(1-(cyclobutylmethyl)-5-((1R, 3r,5S,6r)-3-morpholinobicyclo [3.1.0]hexan-6-yl)-1H-pyrazol-3-yl)-3-(difluoromethoxy)pyridin-2-amine] had a Ki of 3.55 nM.
`CC(C)n1nc(-c2cnc(N)c(OC(F)(F)F)c2)cc1[C@H]1[C@@H]2C[C@H](N3CCN(C)C[C@@H]3C)C[C@@H]21` [compound 240, 5-(5-((1R,3r,5S,6S)-3-((S)-2,4-dimethylpiperazin-1-yl)bicyclo [3.1.0]hexan-6-yl)-1-isopropyl-1H-pyrazol-3-yl)-3-(trifluoromethoxy) pyridin-2-amine] came in with an inhibitory constant (Ki) of 2.1 nM.
With `COC1CCN([C@@H]2C[C@@H]3[C@H](C2)[C@H]3c2cc(-c3cnc(N)c(OC(F)(F)F)c3)nn2C(C)C)CC1` [compound 246, 5-(1-isopropyl-5-((1R,3s,5S,6r)-3-(4-methoxypiperidin-1-yl)bicyclo[3.1.0]hexan-6-yl)-1H-pyrazol-3-yl)-3-(trifluoromethoxy) pyridin-2-amine], the Ki came to 1.8 nM.
Compound `CC(C)n1nc(-c2cnc(N)c(C(F)(F)F)c2)cc1[C@H]1[C@@H]2C[C@H](N3CC(F)(F)C3)C[C@@H]21` [compound 54, 5-(5-((1R,3r,5S,6r)-3-(3,3-difluoro-azetidin-1-yl)bicyclo[3.1.0]hexan-6-yl)-1-isopropyl-1H-pyrazol-3-yl)-3-(trifluoromethyl) pyridin-2-amine] gave an inhibitory constant (Ki) of 7.68 nM.
`CC(C)n1nc(-c2cnc(N)c(C(F)(F)F)c2)cc1[C@H]1[C@@H]2C[C@@H](N3CCCN(C)CC3)C[C@@H]21` [compound 210, 5-(1-isopropyl-5-((1R,3s,5S,6r)-3-(4-methyl-1,4-diazepan-1-yl)bicyclo[3.1.0]hexan-6-yl)-1H-pyrazol-3-yl)-3-(trifluoromethyl) pyridin-2-amine] registered a Ki of 2 nM.
Consider `CO[C@H]1CCCN([C@@H]2C[C@@H]3[C@H](C2)[C@H]3c2cc(-c3cnc(N)c(C(F)(F)F)c3)nn2C(C)C)C1` [compound 290, 5-(1-isopropyl-5-((1R,3s,5S,6S)-3-((S)-3-methoxypiperidin-1-yl)bicyclo[3.1.0]hexan-6-yl)-1H-pyrazol-3-yl)-3-(trifluoromethyl) pyridin-2-amine], for which the inhibition constant Ki was 7.7 nM.
With `Nc1ncc(-c2cc([C@H]3[C@@H]4C[C@@H](N5CCOCC5)C[C@@H]43)n(C3CCCC3)n2)cc1OC(F)F` [compound 130, 5-(1-cyclopentyl-5-((1R,3s,5S,6r)-3-morpholinobicyclo[3.1.0]hexan-6-yl)-1H-pyrazol-3-yl)-3-(difluoromethoxy)pyridin-2-amine], affinity was put at a Ki of 4.82 nM.
In turn, `CC(C)n1nc(-c2cnc(N)c(OC(F)F)c2)cc1[C@H]1[C@@H]2C[C@H](OC3COC3)C[C@@H]21` [compound 230, 3-(difluoromethoxy)-5-(1-iso-oprpyl-5-((1R,3r,5S,6r)-3-(oxetan-3-yloxy)bicyclo[3.1.0]hexan-6-yl)-1H-pyrazol-3-yl)pyridin-2-amine] registered a Ki of 3.4 nM.
The same measure for `CC(C)n1nc(-c2cnc(N)c(C(F)(F)F)c2)cc1[C@H]1[C@@H]2CC(N3CCN4CCOCC4C3)C[C@@H]21` (single isomer, unassigned) [compound 184]: 2.1 nM; for `CCN1CCN([C@@H]2C[C@@H]3[C@H](C2)[C@H]3c2cc(-c3cnc(N)c(C(F)(F)F)c3)nn2C(C)C)CC1` [compound 17, 5-(5-((1R,3s,5S,6r)-3-(4-ethylpiperazin-1-yl)bicyclo[3.1.0]hexan-6-yl)-1-isopropyl-1H-pyrazol-3-yl)-3-(trifluoromethyl)pyridin-2-amine]: 2.92 nM.
The same measure for `CC(C)n1nc(-c2cnc(N)c(C(F)(F)F)c2)cc1[C@H]1[C@@H]2C[C@@H](N3CCO[C@@H](C)C3)C[C@@H]21` [compound 112, 5-(1-isopropyl-5-((1R,3s,5S,6S)-3-((S)-2-methylmorpholino)bicyclo[3.1.0]hexan-6-yl)-1H-pyrazol-3-yl)-3-(trifluoromethyl) pyridin-2-amine]: 5.87 nM; for `CC(C)n1nc(-c2cnc(N)c(OC(F)F)c2)cc1C1[C@H]2CC(N3CCOCC(F)C3)C[C@@H]12` (single isomer, unassigned) [compound 173]: 4.5 nM; for `CC(C)n1nc(-c2cnc(N)c(C(F)(F)F)c2)cc1[C@H]1[C@@H]2C[C@H](N3CC(C#N)C3)C[C@@H]21` [compound 70, 1-((1R,3r,5S,6r)-6-(3-(6-amino-5-(trifIuoromethyl)pyridin-3-yl)-1-isopropyl-1H-pyrazol-5-yl)bicyclo[3.1.0]hexan-3-yl)azetidine-3-carbonitrile]: 2.9 nM.
Regarding `CC(C)n1nc(-c2cnc(N)c(OC(F)F)c2)cc1[C@H]1[C@@H]2C[C@H](N3CCOC[C@H]3C)C[C@@H]21` [compound 81, 3-(difluoromethoxy)-5-(1-isopropyl-5-((1R,3r,5S,6R)-3-((R)-3-methylmorpholino)bicyclo[3.1.0]hexan-6-yl)-1H-pyrazol-3-yl) pyridin-2-amine], the affinity, expressed as Ki, was 1.43 nM.
Compound `CO[C@H]1CCN([C@@H]2C[C@@H]3[C@H](C2)[C@H]3c2cc(-c3cnc(N)c(C(F)(F)F)c3)nn2CC(F)F)C1` [compound 150, 5-(1-(2,2-difluoroethyl)-5-((1R,3s,5S,6S)-3-((S)-3-methoxy-pyrrolidin-1-yl)bicyclo[3.1.0]hexan-6-yl)-1H-pyrazol-3-yl)-3-(trifluoro-methyl)pyridin-2-amine] registered an inhibition constant Ki of 3.6 nM.

The term Ki denotes a measure of affinity in units of concentration, obtained from inhibition or displacement. The low end stands for tighter binding, the high end for weaker binding.
